One compound from BindingDB's records for doi:10.1021/acs.biochem.6b01152 (University of California San Diego, 2017) can be followed below.

What all share (assay): 8-[Fluo]-cAMP Fluorescence Polarization Binding Assay
Background: Fluorescence polarisation rises when a labelled molecule tumbles more slowly, as on binding a larger partner.

Assay [1] deals with cAMP-dependent protein kinase type I-alpha regulatory subunit (Homo sapiens, UniProt P10644). As to the method:
(§1) The ability of the R subunit basic patch mutants to bind cAMP in the absence of the C subunit was tested using the fluorescent cAMP analogue, 8-[fluo]-cAMP (Biolog), used at a final concentration of 10 nM. Wells were titrated with a rangeof R subunit concentrations (from 0 to 125 nM), which were diluted with FP assay buffer.

The target in assay [2] is cAMP-dependent protein kinase type I-alpha regulatory subunit [K244A] (Homo sapiens, UniProt P10644, K244A). As to the method: as §1
Sequence of cAMP-dependent protein kinase type I-alpha regulatory subunit [K244A] (P10644 whole entry K244A): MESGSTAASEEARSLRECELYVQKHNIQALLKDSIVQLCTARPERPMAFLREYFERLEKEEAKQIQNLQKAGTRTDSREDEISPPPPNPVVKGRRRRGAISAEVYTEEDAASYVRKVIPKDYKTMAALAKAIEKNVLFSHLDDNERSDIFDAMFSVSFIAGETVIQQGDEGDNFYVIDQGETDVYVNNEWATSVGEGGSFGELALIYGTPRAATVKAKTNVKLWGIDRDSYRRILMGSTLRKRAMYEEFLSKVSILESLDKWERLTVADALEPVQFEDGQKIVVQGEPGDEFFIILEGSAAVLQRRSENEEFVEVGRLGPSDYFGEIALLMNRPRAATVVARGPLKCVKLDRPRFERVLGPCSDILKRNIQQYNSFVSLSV
Assay [3] addresses cAMP-dependent protein kinase type I-alpha regulatory subunit [K242A] (Homo sapiens, UniProt P10644, K242A). As to the method: as §1
Assay [4] deals with cAMP-dependent protein kinase type I-alpha regulatory subunit [R243A] (Homo sapiens, UniProt P10644, R243A). As to the method: as §1
Sequence of cAMP-dependent protein kinase type I-alpha regulatory subunit [R243A] (P10644 whole entry R243A): as the sequence (P10644 whole entry K244A) above, with R243A, A244K counted along it
In assay [5] the target is cAMP-dependent protein kinase type I-alpha regulatory subunit [R241A] (Homo sapiens, UniProt P10644, R241A). On the procedure:
as §1

Sequence of cAMP-dependent protein kinase type I-alpha regulatory subunit [R241A] (P10644 whole entry R241A): as the sequence (P10644 whole entry K244A) above, with R241A, A244K counted along it
Sequence of cAMP-dependent protein kinase type I-alpha regulatory subunit [K242A] (P10644 whole entry K242A): as the sequence (P10644 whole entry K244A) above, with K242A, A244K counted along it
Sequence of cAMP-dependent protein kinase type I-alpha regulatory subunit (P10644 whole entry): as the sequence (P10644 whole entry K244A) above, with A244K counted along it

The term Kd denotes the free concentration of one partner at which half of the binding sites on the other are occupied at equilibrium, for simple one-to-one binding. Low readings indicate higher affinity, high ones lower affinity. As for `Nc1ncnc2c1nc(SCCNC(=S)Nc1ccc(-c3c4ccc(=O)cc-4oc4cc(O)ccc34)c(C(=O)O)c1)n2C1OC2COP(=O)(O)OC2C1O` (stereo not given) [8-[Fluo]-cAMP], the Kd in assay [1] was determined as 7.3 nM; in assay [2] it was 7.71 nM; in assay [3] it was 7.32 nM; in assay [4], 7.29 nM; in assay [5], 6.72 nM.
